Reference: the METLIN SMRT retention time set (Domingo-Almenara et al. 2019)

Test: gradient 5% acetonitrile 3 min, to 50% in 2 min, to 85% in 15 min, held 3 min, 100 µL/min
Details: column: Zorbax Extend-C18 2.1 x 50 mm; eluents: water / acetonitrile, 0.1% formic acid
In short: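 The system's dead and dwell volumes were 40 μL and 900 μL, with a Zorbax Extend-C18 column (2.1 × 50 mm, 1.8 μm) run at 100 μL/min in water and acetonitrile containing 0.1% formic acid each. Pure standards were analyzed in mixtures of ~100 molecules by HPLC–quadrupole time-of-flight mass spectrometry in positive and negative ionization mode. Retention time was assigned from computationally picked, manually inspected adduct peaks.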

RP-LC retention time	SMILES
646 s	O=C1CC(c2ccccc2)N1 (stereo unspecified)
803 s	COCCN1C(=O)c2oc3ccc(F)cc3c(=O)c2C1c1ccc([N+](=O)[O-])cc1 (stereo unspecified)
829 s	Cc1ccc(NC(=O)N2CCC(c3nc(C(=O)N4CCCC4)c(C)o3)CC2)cc1C
572 s	CCNC(=O)c1n[nH]c2c1CN(Cc1sccc1C)CC2
633 s	O=C(NCC1CCCO1)c1cn(-c2ccc(NC(=O)C3CC3)cn2)cn1 (stereo unspecified)
738 s	CCN1CCCn2cc(S(=O)(=O)Nc3ccc(F)c(Cl)c3)cc2C1=O
599 s	Cc1noc(C)c1CN1CCN(C(=O)NCc2cccc(F)c2)CC1
664 s	CCNC(=O)C1CCCN(c2nc3ncn(CC(=O)Nc4ccccc4Cl)c(=O)c3s2)C1 (stereo unspecified)
840 s	O=C(CN1C(=O)c2ccccc2C1=O)OCc1nc2ccccc2s1
604 s	O=C1CCCCC(CNC(=O)c2n[nH]c(=O)c3ccccc23)N1 (stereo unspecified)
689 s	Cc1ccn2c(NC(=O)COc3ccccc3)c(-c3ccc(F)cc3)nc2c1
661 s	c1ccc(-c2nc(C3CCOCC3)no2)c(OC2CCN(C3CCCC3)C2)c1 (stereo unspecified)
818 s	Cc1noc(CNS(=O)(=O)c2ccc(OC(F)(F)F)cc2)n1
1070 s	COc1ccc(C2(C(=O)N3CCCC3c3nc(-c4ccccc4Cl)no3)CC2)cc1 (stereo unspecified)
760 s	Cc1ccc(C(=O)N2CCN(c3nnc4ccc(Cl)cn34)CC2)cc1F
866 s	C[C@H](C(=O)O)c1cccc(C(=O)c2ccccc2)c1
1110 s	Cc1ccccc1-n1c(=O)c2sccc2n(Cc2nc(-c3cccc(Br)c3)no2)c1=O
806 s	CCOC(=O)C(C)Sc1nnc(NC(=O)Cc2ccc(OC)cc2)s1 (stereo unspecified)

RP-LC retention time	SMILES
844 s	COc1ccc2[nH]cc(CCN3CC(C(=O)Nc4ccc(Br)cc4)CC3=O)c2c1 (stereo unspecified)
596 s	O=C(Cn1c(=O)ccc2cc(S(=O)(=O)N3CCCC3)ccc21)N1CCN(c2ccccn2)CC1
762 s	Cc1cccc(CNC(=O)C2CCCN(C(=O)C3Sc4ccccc4NC3=O)C2)c1 (stereo unspecified)
787 s	Cc1ccc(-c2cc(C(=O)N3CCC(NC(=O)c4ccc5c(c4)OCO5)CC3)[nH]n2)c(C)c1
927 s	O=C(Nc1ccccc1Br)c1cnc(-c2ccccc2)nc1-c1ccncc1
671 s	COC(=O)[C@H]1[C@H]2C[C@H]3c4[nH]c5ccccc5c4CCN3C[C@H]2CC[C@@H]1O
793 s	O=C(CCc1ccc2[nH]ccc2c1)NCc1ccc(F)cc1
876 s	Cc1ccc2c(c1)N(Cc1cccc(F)c1)N=C(C(=O)N1CCCC1)S2(=O)=O
897 s	COc1ccc(N2CCN(c3cc(SCC(=O)NCc4ccc(SC)cc4)ncn3)CC2)cc1
603 s	COCCCN(CC(=O)N1CCNCC1)C(=O)c1ccc(Br)cc1
597 s	O=C(NCc1cccnc1)c1ccc(CN2CCN(Cc3ccc(F)cc3)C(=O)C2=O)cc1
598 s	COc1ccc(CNCCSc2nnnn2C)c(OC)c1
636 s	Cc1ccc(NC(=O)N2CCN(CCn3cnc4cccnc43)CC2)cc1Cl
608 s	CN(CCc1noc(C2CN(Cc3cc(Cl)ccc3F)C2)n1)S(C)(=O)=O
775 s	COc1cccc(CNC2=NCCNC23CCN(S(=O)(=O)c2ccc(C)c(C)c2)CC3)c1
1170 s	COC(=O)c1sccc1NC(=O)Cn1c(C)cc(C)c(-c2nc(-c3cccc(Cl)c3)no2)c1=O
759 s	COc1ccccc1C(=O)N1CCCC1COc1ccc(C(=O)NC2CC2)cc1 (stereo unspecified)
1140 s	CCn1c(=O)c(C)nc2cc(-c3noc(/C=C/c4ccc(OC)cc4)n3)ccc21
